For one experiment, the target named is mGluR4 (UniProt Q14833). The experiment is described as follows: mGluR4 potentiation assay (Ca2+ or thallium flux fluorescence, agonist EC20). Type of experiment: cell-based, human or rat. As to the method:
The disclosed compounds and compositions can be evaluated for their ability to act as a potentiator of metabotropic glutamate receptor activity, in particular mGluR4 activity, by any suitable known methodology known in the art. For example, Chinese Hamster Ovary (CHO) cells transfected with human mGluR4 or HEK cells co-transfected with rat mGluR4 and the G-protein regulated Inwardly Rectifying Potassium channel (GIRK) were plated in clear bottom assay plates for assay in a Hamamatsu FDSS Fluorometric Plate Reader. The cells were loaded with either a Ca2+-sensitive fluorescent dye or the thallium responsive dye and the plates were washed and placed into a suitable kinetic plate reader. For human mGluR4 assays, a fluorescence baseline was established for 3-5 seconds, the disclosed compounds were then added to the cells, and the response in cells was measured. Approximately two and a half minutes later, a concentration of mGluR4 orthosteric agonist (e.g. glutamate or L-AP4) eliciting approximately 20% (EC20) of the maximal agonist response was added to the cells, and the response was measured. Two minutes later, a concentration of mGluR4 agonist (e.g. glutamate or L-AP4) eliciting 80% (EC80) of the maximal agonist response was added to the cells, and the response was measured. For rat mGluR4/GIRK experiments, a baseline was established for approximately five seconds, disclosed compounds were added, and either an EC20 or EC80 concentration of agonist was added approximately two and one half minutes later.
The above described assay operated in two modes. In the first mode, a range of concentrations of the disclosed compounds are added to cells, followed by a single fixed concentration of agonist. If the compound acts as a potentiator, an EC50 value for potentiation and a maximum extent of potentiation by the compound at this concentration of agonist is determined by non-linear curve fitting. If the compound acts as a noncompetitive antagonist, an IC50 value is determined by non-linear curve fitting. In the second mode, several fixed concentrations of the disclosed compounds are added to various wells on a plate, followed by a range in concentrations of agonist for each concentration of disclosed compound. The EC50 values for the agonist at each concentration of compound are determined by non-linear curve fitting. A decrease in the EC50 value of the agonist with increasing concentrations of the sample compound (a leftward shift of the agonist concentration-response curve) is an indication of the degree of mGluR4 potentiation at a given concentration of the sample compound. A decrease in the maximal response of the agonist with increasing concentrations of the sample compounds, with or without a rightward shift in agonist potency, is an indication of the degree of noncompetitive antagonism at mGluR4. The second mode also indicates whether the sample compounds also affect the maximum response to mGluR4 to agonists.

For a further experiment, the target named is T1, mGluR5 (Rattus norvegicus, UniProt P31424).
T1 construct: expressed in transfected cells; host or cells: human embryonic kidney (HEK) cells
The experiment can be described thus: mGluR5 negative allosteric modulation, decrease in response to non-maximal glutamate in HEK cells. Type of experiment: cell-based. The following applies: Table 3; read-out: mGlu5 IC50. From the text:
Embodiments of the present invention are also mGluR5 negative allosteric modulators. Accordingly, in one aspect, the invention relates to compounds that are also useful as negative allosteric modulators of the metabotropic glutamate receptor subtype 5 (mGluR5). Negative allosteric modulators are non-competitive antagonists and can include a range of maximal antagonist activity from partial antagonists to inverse agonists. In one aspect, the present invention relates to compounds that allosterically modulate mGluR5 receptor activity, affecting the sensitivity of mGluR5 receptors to agonists without acting as orthosteric agonists themselves. […] The compounds of the invention can be useful in the treatment neurological and psychiatric disorders associated with glutamate dysfunction and other diseases in which metabotropic glutamate receptors are involved, as further described herein. […] In further aspect, the human embryonic kidney cells are transfected with human mGluR5. In yet a further aspect, human embryonic kidney cells are transfected with mGluR5 of a mammal.
In further aspect, the human embryonic kidney cells are transfected with human mGluR5. In yet a further aspect, human embryonic kidney cells are transfected with mGluR5 of a mammal.

Setting [1] is: Table 2, potentiation of mGluR4 agonist response, read-out: EC50.

A word on the EC50: it is the midpoint of the concentration-response curve. A word on the IC50: it is the concentration that inhibits the measured activity by half.

Where two headings read alike, the source gives them in different places.

T1 sequence (P31424 21-1203): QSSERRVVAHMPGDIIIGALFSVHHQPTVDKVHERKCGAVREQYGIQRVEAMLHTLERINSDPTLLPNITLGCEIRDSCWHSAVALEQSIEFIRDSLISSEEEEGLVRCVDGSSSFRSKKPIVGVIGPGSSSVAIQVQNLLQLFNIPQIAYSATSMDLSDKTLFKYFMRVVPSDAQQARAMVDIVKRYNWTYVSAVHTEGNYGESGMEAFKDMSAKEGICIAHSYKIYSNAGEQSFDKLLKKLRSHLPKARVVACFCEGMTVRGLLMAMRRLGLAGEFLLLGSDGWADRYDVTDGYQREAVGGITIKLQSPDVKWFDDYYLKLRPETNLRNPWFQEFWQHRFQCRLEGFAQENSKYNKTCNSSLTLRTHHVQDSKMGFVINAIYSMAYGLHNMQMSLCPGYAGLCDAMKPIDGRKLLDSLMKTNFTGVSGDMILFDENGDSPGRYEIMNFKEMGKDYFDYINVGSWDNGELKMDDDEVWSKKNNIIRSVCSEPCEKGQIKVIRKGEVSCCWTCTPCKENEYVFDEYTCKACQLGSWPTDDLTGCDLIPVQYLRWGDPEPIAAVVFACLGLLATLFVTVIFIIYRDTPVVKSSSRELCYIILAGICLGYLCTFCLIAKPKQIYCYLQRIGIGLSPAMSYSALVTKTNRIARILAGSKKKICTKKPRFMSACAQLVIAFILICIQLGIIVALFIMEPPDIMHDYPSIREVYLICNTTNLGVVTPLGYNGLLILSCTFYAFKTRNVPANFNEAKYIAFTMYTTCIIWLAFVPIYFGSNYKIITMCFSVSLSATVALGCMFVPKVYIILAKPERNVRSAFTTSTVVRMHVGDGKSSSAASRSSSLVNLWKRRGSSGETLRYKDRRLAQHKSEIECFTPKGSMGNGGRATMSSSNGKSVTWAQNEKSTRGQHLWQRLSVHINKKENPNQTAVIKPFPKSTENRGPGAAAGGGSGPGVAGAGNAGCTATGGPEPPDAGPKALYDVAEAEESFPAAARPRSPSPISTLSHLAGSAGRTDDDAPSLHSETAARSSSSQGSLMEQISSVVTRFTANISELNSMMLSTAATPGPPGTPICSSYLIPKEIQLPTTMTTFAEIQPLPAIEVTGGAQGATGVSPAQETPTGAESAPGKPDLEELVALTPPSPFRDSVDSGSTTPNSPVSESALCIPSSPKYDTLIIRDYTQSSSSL

`FC(F)(F)c1ccnc(Oc2ccc(Nc3n[nH]c4cccnc34)cc2Cl)c1` [Example 97, N-(3-chloro-4-((4-(trifluoromethyl)pyridin-2-yl)oxy)phenyl)-1H-pyrazolo[4,3-b]pyridin-3-amine]: on mGluR4 (setting [1]), the EC50 came out at 497 nM. With `Fc1cccnc1Oc1ccc(Nc2n[nH]c3cccnc23)cc1Cl` [Example 98, N-(3-chloro-4-((3-fluoropyridin-2-yl)oxy)phenyl)-1H-pyrazolo[4,3-b]pyridin-3-amine], the half-maximal effective concentration (EC50) at mGluR4 (setting [1]) turned out to be 635 nM.

Turning to `Fc1ccccc1COc1ccc(Nc2n[nH]c3cccnc23)cc1Cl` [Example 99], the 50% effective concentration (EC50) at mGluR4 (setting [1]) worked out at 180 nM. Consider `CC(Oc1ccc(Nc2n[nH]c3cccnc23)cc1Cl)c1ccccc1` (centres unmarked) [Example 100, N-(3-chloro-4-(1-phenylethoxy)phenyl)-1H-pyrazolo[4,3-b]pyridin-3-amine], for which the half-maximal effective concentration (EC50) at mGluR4 (setting [1]) turned out to be 1600 nM. Regarding `Clc1cc(Nc2n[nH]c3cccnc23)ccc1OCc1ccncc1` [Example 101, N-(3-chloro-4-(pyridin-4-ylmethoxy)phenyl)-1H-pyrazolo[4,3-b]pyridin-3-amine], the EC50 at mGluR4 (setting [1]) is 270 nM.

Regarding `Clc1cc(Nc2n[nH]c3cccnc23)ccc1OCc1cccnc1` [Example 102, N-(3-chloro-4-(pyridin-3-ylmethoxy)phenyl)-1H-pyrazolo[4,3-b]pyridin-3-amine], the EC50 on mGluR4 (setting [1]) was 400 nM. With `Clc1cc(Nc2n[nH]c3cccnc23)ccc1OCc1nccs1` [Example 103, N-(3-chloro-4-(thiazol-2-ylmethoxy)phenyl)-1H-pyrazolo[4,3-b]pyridin-3-amine], the half-maximal effective concentration (EC50) at mGluR4 (setting [1]) was 360 nM. For `Clc1ccccc1COc1ccc(Nc2n[nH]c3cccnc23)cc1Cl` [Example 104], the EC50 on mGluR4 (setting [1]) was determined as 1500 nM.

For `Clc1cc(Nc2n[nH]c3cccnc23)ccc1OCC1CCCC1` [Example 105, N-(3-chloro-4-(cyclopentylmethoxy)phenyl)-1H-pyrazolo[4,3-b]pyridin-3-amine], at mGluR4 (setting [1]), the concentration for a half-maximal effect (EC50) came out at 400 nM. Consider `Clc1cc(Nc2n[nH]c3cccnc23)ccc1OC1CCCCC1` [Example 106, N-(3-chloro-4-(cyclohexyloxy)phenyl)-1H-pyrazolo[4,3-b]pyridin-3-amine], for which the EC50 on mGluR4 (setting [1]) stood at 470 nM. Same read-out and setting: under `C[C@H](Oc1ccc(Nc2n[nH]c3cccnc23)cc1Cl)c1ccccn1` [Example 107, (S)-N-(3-chloro-4-(1-(pyridin-2-yl)ethoxy)phenyl)-1H-pyrazolo[4,3-b]pyridin-3-amine] stands 610 nM; under `Clc1cc(Nc2n[nH]c3cccnc23)ccc1OCc1ncccn1` [Example 108, N-(3-chloro-4-(pyrimidin-2-ylmethoxy)phenyl)-1H-pyrazolo[4,3-b]pyridin-3-amine], 1190 nM. The same measure, in the same setting: under `Clc1cc(Nc2n[nH]c3cccnc23)ccc1OC1CCCc2cccnc21` (centres unmarked) [Example 109, N-(3-chloro-4-((5,6,7,8-tetrahydroquinolin-8-yl)oxy)phenyl)-1H-pyrazolo[4,3-b]pyridin-3-amine] stands 1000 nM; under `C[C@H](Oc1ccc(Nc2n[nH]c3cccnc23)cc1Cl)c1ccncc1` [Example 110, (S)-N-(3-chloro-4-(1-(pyridin-4-yl)ethoxy)phenyl)-1H-pyrazolo[4,3-b]pyridin-3-amine], 1230 nM.

On to `N#Cc1cncc(Oc2ccc(Nc3n[nH]c4cccnc34)cc2Cl)c1` [Example 111, 5-(4-((1H-pyrazolo[4,3-b]pyridin-3-yl)amino)-2-chlorophenoxy)nicotinonitrile], for which the 50% effective concentration (EC50) at mGluR4 (setting [1]) worked out at 84.8 nM. The same measure, in the same setting: under `Fc1cncc(Oc2ccc(Nc3n[nH]c4cccnc34)cc2Cl)c1` [Example 112, N-(3-chloro-4-((5-fluoropyridin-3-yl)oxy)phenyl)-1H-pyrazolo[4,3-b]pyridin-3-amine] stands 611 nM. On the same count and under the same terms, under `Cc1cc(Nc2n[nH]c3cccnc23)ccc1Oc1ncccn1` [Example 113, N-(3-methyl-4-(pyrimidin-2-yloxy)phenyl)-1H-pyrazolo[4,3-b]pyridin-3-amine] stands 265 nM. For the compound `Clc1cc(Nc2n[nH]c3cccnc23)ccc1Nc1ccccn1` [Example 114, 2-chloro-N4-(1H-pyrazolo[4,3-b]pyridin-3-yl)-N1-(pyridin-2-yl)benzene-1,4-diamine], the EC50 at mGluR4 (Table 3, read-out: mGlu4 EC50) came out at 33.5 nM. Further, on mGluR5, the IC50 stood at 582 nM. For `Clc1cc(Nc2n[nH]c3cccnc23)ccc1Nc1cc2ccccc2cn1` [Example 115, 2-chloro-N1-(isoquinolin-3-yl)-N4-(1H-pyrazolo[4,3-b]pyridin-3-yl)benzene-1,4-diamine], at mGluR4 (Table 3, read-out: mGlu4 EC50), the concentration for a half-maximal effect (EC50) came to 37.2 nM.

As for `Clc1cccc(Nc2ccc(Nc3n[nH]c4cccnc34)cc2Cl)n1` [Example 116, 2-chloro-N1-(6-chloropyridin-2-yl)-N4-(1H-pyrazolo[4,3-b]pyridin-3-yl)benzene-1,4-diamine], the 50% effective concentration (EC50) at mGluR4 (Table 3, read-out: mGlu4 EC50) was determined as 82.5 nM. Also, the half-inhibitory concentration (IC50) on mGluR5 is 2430 nM.

Take `Clc1cc(Nc2n[nH]c3cccnc23)ccc1Nc1cnccn1` [Example 117, 2-chloro-N1-(pyrazin-2-yl)-N4-(1H-pyrazolo[4,3-b]pyridin-3-yl)benzene-1,4-diamine]: the EC50 on mGluR4 (Table 3, read-out: mGlu4 EC50) amounted to 30.6 nM. The half-maximal inhibitory concentration (IC50) on mGluR5 is 100 nM. On the same counts, the results for `Clc1cc(Nc2n[nH]c3cccnc23)ccc1Nc1ncccn1` [Example 118, 2-chloro-N4-(1H-pyrazolo[4,3-b]pyridin-3-yl)-N1-(pyrimidin-2-yl)benzene-1,4-diamine] are 43.9 nM and 3600 nM. Regarding `Cc1ccc(Nc2ccc(Nc3n[nH]c4cccnc34)cc2Cl)nc1` [Example 119, 2-chloro-N1-(5-methylpyridin-2-yl)-N4-(1H-pyrazolo[4,3-b]pyridin-3-yl)benzene-1,4-diamine], the 50% effective concentration (EC50) at mGluR4 (Table 3, read-out: mGlu4 EC50) came to 16.9 nM. The half-inhibitory concentration (IC50) at mGluR5 is 590 nM. In the same order, the values of `Cc1cccc(Nc2ccc(Nc3n[nH]c4cccnc34)cc2Cl)n1` [Example 120, 2-chloro-N1-(6-methylpyridin-2-yl)-N4-(1H-pyrazolo[4,3-b]pyridin-3-yl)benzene-1,4-diamine] are 31.5 nM and 550 nM.

As for `FC(F)(F)c1ccnc(Nc2ccc(Nc3n[nH]c4cccnc34)cc2Cl)c1` [Example 121, 2-chloro-N4-(1H-pyrazolo[4,3-b]pyridin-3-yl)-N1-(4-(trifluoromethyl)pyridin-2-yl)benzene-1,4-diamine], the EC50 at mGluR4 (Table 3, read-out: mGlu4 EC50) stood at 56.9 nM.

Consider `Clc1cc(Nc2n[nH]c3cccnc23)ccc1Nc1cnc2ccccc2c1` [Example 122, 2-chloro-N4-(1H-pyrazolo[4,3-b]pyridin-3-yl)-N1-(quinolin-3-yl)benzene-1,4-diamine], for which the EC50 on mGluR4 (Table 3, read-out: mGlu4 EC50) was 162 nM. As for `Clc1cc(Nc2n[nH]c3cccnc23)ccc1Nc1ncc2ccccc2n1` [Example 125, 2-chloro-N4-(1H-pyrazolo[4,3-b]pyridin-3-yl)-N1-(quinazolin-2-yl)benzene-1,4-diamine], the concentration giving a half-maximal response (EC50) on mGluR4 (Table 3, read-out: mGlu4 EC50) is 21.6 nM. As for `Clc1cc(Nc2n[nH]c3cccnc23)ccc1Nc1nccc2cccnc12` [Example 128, 2-chloro-N1-(1,7-naphthyridin-8-yl)-N4-(1H-pyrazolo[4,3-b]pyridin-3-yl)benzene-1,4-diamine], on mGluR4 (Table 3, read-out: mGlu4 EC50), the 50% effective concentration (EC50) stood at 455 nM. On the same count and under the same terms, with `Cc1cc(Nc2n[nH]c3cccnc23)ccc1Nc1ncccn1` [Example 130, 2-methyl-N4-(1H-pyrazolo[4,3-b]pyridin-3-yl)-N1-(pyrimidin-2-yl)benzene-1,4-diamine] the figure was 235 nM.

Source of the values: patent publication US9108963B2, “Pyrazolopyridine, pyrazolopyrazine, pyrazolopyrimidine, pyrazolothiophene and pyrazolothiazole compounds as MGLUR4 allosteric potentiators, compositions, and methods of treating neurological dysfunction” (Vanderbilt University, priority 2010, dated 2015).
